Experimental data published in patent publication US3973006A, “Peptide enzyme inhibitors of angiotensin I” (E. R. Squibb & Sons, Inc., priority 1975, dated 1976).

How the values were obtained:
[1] = tested on: angiotensin I induced pressor response; experiment: Inhibition of angiotensin I induced pressor response in anesthetized rats; type: in vivo; conditions: intravenous; atropinized anesthetized male rats infused with pentolinium; 0.10 μg/kg angiotensin I
[2] = target: angiotensin-converting enzyme (Homo sapiens, UniProt P12821); experiment: Inhibition of angiotensin-converting enzyme (conversion of angiotensin I into angiotensin II), I50 determination; type: biochemical; conditions: for IC50: 0.3 mM angiotensin I, 100 mM potassium phosphate buffer pH 7.5, 30 mM NaCl, 37°, read-out: I50 (concentration of peptide producing a 50% inhibition of angiotensin-converting enzyme) (converted)
Sequence of angiotensin-converting enzyme (P12821 30-1306, species assumed): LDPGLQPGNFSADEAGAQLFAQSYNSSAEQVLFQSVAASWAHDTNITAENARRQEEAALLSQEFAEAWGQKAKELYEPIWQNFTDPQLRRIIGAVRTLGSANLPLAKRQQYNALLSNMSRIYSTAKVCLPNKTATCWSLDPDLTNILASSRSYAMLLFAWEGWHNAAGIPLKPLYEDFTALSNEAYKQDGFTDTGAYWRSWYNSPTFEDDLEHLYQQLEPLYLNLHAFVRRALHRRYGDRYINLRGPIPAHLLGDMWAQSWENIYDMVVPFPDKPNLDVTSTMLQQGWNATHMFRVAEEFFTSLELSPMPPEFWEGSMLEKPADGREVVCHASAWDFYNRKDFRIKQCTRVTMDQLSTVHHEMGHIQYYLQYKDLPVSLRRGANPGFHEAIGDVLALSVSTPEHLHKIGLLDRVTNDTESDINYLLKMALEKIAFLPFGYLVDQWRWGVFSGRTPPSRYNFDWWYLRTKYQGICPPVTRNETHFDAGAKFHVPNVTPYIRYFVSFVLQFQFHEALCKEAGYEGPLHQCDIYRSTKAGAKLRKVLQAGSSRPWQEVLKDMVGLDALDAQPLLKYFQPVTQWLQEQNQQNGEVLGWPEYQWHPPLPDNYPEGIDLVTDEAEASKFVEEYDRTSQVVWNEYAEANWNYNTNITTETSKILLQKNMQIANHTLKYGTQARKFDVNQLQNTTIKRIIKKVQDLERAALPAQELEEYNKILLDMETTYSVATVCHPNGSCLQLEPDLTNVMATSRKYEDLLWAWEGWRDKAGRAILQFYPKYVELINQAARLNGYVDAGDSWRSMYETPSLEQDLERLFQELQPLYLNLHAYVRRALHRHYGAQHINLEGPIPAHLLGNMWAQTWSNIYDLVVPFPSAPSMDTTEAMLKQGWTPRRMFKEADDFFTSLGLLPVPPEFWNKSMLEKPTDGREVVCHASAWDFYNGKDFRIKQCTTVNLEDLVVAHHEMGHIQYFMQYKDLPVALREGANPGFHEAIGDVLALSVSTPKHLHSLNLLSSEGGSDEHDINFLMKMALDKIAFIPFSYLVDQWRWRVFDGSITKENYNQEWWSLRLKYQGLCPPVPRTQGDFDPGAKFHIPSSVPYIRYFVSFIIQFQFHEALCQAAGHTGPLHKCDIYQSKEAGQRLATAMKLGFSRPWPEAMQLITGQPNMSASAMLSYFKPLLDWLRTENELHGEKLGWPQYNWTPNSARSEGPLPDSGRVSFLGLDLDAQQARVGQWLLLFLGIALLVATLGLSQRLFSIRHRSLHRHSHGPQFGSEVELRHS
Method: For determination of I50 values (concentration of peptide expressed in micrograms/ml. producing a 50% inhibition of angiotensin-converting enzyme), varying concentrations of the peptide of Example 19 are added to 13 × 100 mm. assay tubes containing a final volume of 0.25 ml. containing 100 mM. potassium phosphate buffer, pH 7.5, 30 mM. NaCl, and 0.3 mM. angiotensin I. Enzymatic reactions are initiated by addition of enzyme and incubation is carried out at 37°. The concentration of the peptide of Example 19 of the present invention which inhibits conversion of 50% of angiotensin I into angiotensin II is found to be 7 μg./ml as opposed to an I50 (μg/ml) of 0.9 for the parent peptide Pyr-Trp-Pro-Arg-Pro-Gln-Ile-Pro-Pro.

| Compound | in vivo activity (degree of inhibition of angiotensin I induced pressor response) [1] | IC50 [2] [µM] | in vitro potency in inhibiting conversion of angiotensin I into angiotensin II, compared with parent control peptide ([2]; in vitro) |
| --- | --- | --- | --- |
| CC[C@H](C)[C@H](NC(=O)[C@H](CCC(N)=O)NC(=O)[C@@H]1CCCN1C(=O)[C@H](CCCNC(=N)N)NC(=O)[C@@H]1CCCN1C(=O)[C@H](Cc1c[nH]c2ccccc12)NC(=O)[C@@H]1CCC(=O)N1)C(=O)N1CCC[C@H]1C(=O)N1CCC[C@H]1C(=O)OC [Example 19, Pyroglutamyl-tryptophyl-prolyl-arginyl-prolyl-glutaminyl-isoleucyl-prolyl-proline, methyl ester] | roughly equivalent to that of the parent Control peptide | 6.28 | substantially less potent than the parent control peptide |
| CC[C@H](C)[C@H](NC(=O)[C@H](CCC(N)=O)NC(=O)[C@@H]1CCCN1C(=O)[C@H](CCCNC(=N)N)NC(=O)[C@@H]1CCCN1C(=O)[C@H](Cc1c[nH]c2ccccc12)NC(=O)[C@@H]1CCC(=O)N1)C(=O)N1CCC[C@H]1C(=O)N1CCC[C@H]1C(=O)O [Pyr-Trp-Pro-Arg-Pro-Gln-Ile-Pro-Pro, Pyroglutamyl-tryptophyl-prolyl-arginyl-prolyl-glutaminyl-isoleucyl-prolyl-proline, reference compound] |  | 0.817 |  |
